Test results taken from patent US20200237766A1, “PKM2 ACTIVATORS IN COMBINATION WITH REACTIVE OXYGEN SPECIES FOR TREATMENT OF CANCER” (TOLERO PHARMACEUTICALS, INC., priority 2017, published 2020).
Where two headings read alike, the source gives them in different places.

Target: PKM2 (Homo sapiens, UniProt P14618)
Assay: PKM2 activation biochemical assay (AC50 / max. response vs fructose 1,6-bisphosphate)
Conditions: for Max. Resp. (%): % maximum response in a biochemical assay as compared with Fructose 1,6-bisphosphate
[1] = biochemical assay, read-out: PKM2 AC50

PKM2, sequence (P14618 whole entry): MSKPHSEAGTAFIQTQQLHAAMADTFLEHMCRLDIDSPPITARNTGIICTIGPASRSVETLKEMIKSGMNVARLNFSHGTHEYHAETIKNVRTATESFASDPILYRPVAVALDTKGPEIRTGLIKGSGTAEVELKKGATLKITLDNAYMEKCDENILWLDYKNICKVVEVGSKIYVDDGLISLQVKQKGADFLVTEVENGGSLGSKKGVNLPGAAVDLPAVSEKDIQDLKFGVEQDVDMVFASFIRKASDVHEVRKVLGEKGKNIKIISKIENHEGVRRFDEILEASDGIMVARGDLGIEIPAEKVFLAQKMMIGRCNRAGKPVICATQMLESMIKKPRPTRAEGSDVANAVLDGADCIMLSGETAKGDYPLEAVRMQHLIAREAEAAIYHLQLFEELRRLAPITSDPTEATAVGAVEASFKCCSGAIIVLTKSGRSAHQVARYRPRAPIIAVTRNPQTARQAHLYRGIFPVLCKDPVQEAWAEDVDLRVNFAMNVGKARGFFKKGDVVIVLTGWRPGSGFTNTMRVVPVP

| SMILES | Max. Resp. (%) | AC50 [1] | AC50 |
| --- | --- | --- | --- |
| O=C(c1cc(Br)n[nH]1)N(CCC1CCS(=O)(=O)CC1)Cc1ccccc1F [Compound 83] | 98% | 1100 nM |  |
| O=C(CCSC(=S)NCc1cccnc1)c1cc[nH]c1 [PMA35] | 30% | 4340 nM |  |
| O=C(c1cc(Cl)n[nH]1)N(CCC1CCS(=O)(=O)CC1)Cc1ccccc1F [Compound 81] | 72% |  | 1370 nM |
| O=C(CCSC(=S)NCc1cccnc1)c1ccccc1 [PMA8] | 24% | 7640 nM |  |
| Nc1cc(C(=O)N(Cc2ccc(O)cc2F)CC2CCC2)[nH]n1 [Compound 3] | 45% | 43800 nM |  |
| O=C(c1cc(C(F)(F)F)n[nH]1)N(Cc1ccccc1F)CC1CCOC1 (stereo not drawn) [Compound 150] | 68% | 16000 nM |  |
| Nc1cccc(Cl)c1CN(CCN1CCCOCC1)C(=O)c1cc(C(F)(F)F)n[nH]1 [Compound 239] | 100% |  | 115 nM |
| CCO[C@H]1CC[C@H](N(Cc2ccccc2F)C(=O)c2cc(C(F)(F)F)n[nH]2)CC1 [Compound 55] | 101% |  | 469 nM |
| Cc1cn2c(=O)cc(Cn3cnc4ccccc43)nc2s1 [PP17] |  | 466 nM |  |
| CO[C@H]1CC[C@H](N(Cc2ccccc2F)C(=O)c2cc(C(F)(F)F)n[nH]2)CC1 [Compound 47] | 89% | 435 nM |  |
| O=C(c1cc(C(F)(F)F)n[nH]1)N(CCN1CCS(=O)(=O)CC1)Cc1ccccc1Cl [Compound 107] | 85% | 873 nM |  |
| O=C(c1cc(C(F)(F)F)n[nH]1)N(CCN1CCCC1)Cc1cccc2nc[nH]c12 [Compound 163] | 100% | 1080 nM |  |
| Nc1ccc(CN(CC2CCC2)C(=O)c2cc(C(F)(F)F)n[nH]2)c(Cl)c1 [Compound 134] | 100% | 1080 nM |  |
| O=C(CCSC(=S)NCc1cccnc1)c1ccc[nH]1 [PMA27] | 126% | > 20000 nM |  |
| O=C(c1cc(C(F)(F)F)n[nH]1)N(CCC1CCOC1)Cc1ccccc1F (stereo not drawn) [Compound 26] | 99% | 377 nM |  |
| CCN1CCN(CCN(Cc2ccccc2F)C(=O)c2cc(C(F)(F)F)n[nH]2)CC1 [Compound 106] | 115% | 6300 nM |  |
| O=C(CCSC(=S)NCc1cccnc1)c1c[nH]c2ncccc12 [PMA32] | 182% | 1000 nM |  |
| O=C(c1cc(C(F)(F)F)n[nH]1)N(CCC1CCS(=O)(=O)CC1)Cc1ccc(O)cc1F [Compound 87] | 100% | 64 nM |  |
| O=C(c1cc(C(F)(F)F)n[nH]1)N(CCC1CCSCC1)Cc1ccccc1F [Compound 79] | 95% | 1190 nM |  |
| O=C(CCSC(=S)NCc1cccnc1)c1ccc(F)cc1 [PMA10] | 48% | 9830 nM |  |
| CCN(CC)CCN(Cc1cc(F)ccc1Cl)C(=O)c1cc(C(F)(F)F)n[nH]1 [Compound 171] | 100% |  | 88 nM |
| O=C(CCSC(=S)NCc1cccnc1)c1ccc(C(F)(F)F)cc1 [PMA17] | 23% | > 20000 nM |  |
| O=C(c1cc(Br)n[nH]1)N(Cc1cccc2[nH]c(=O)sc12)CC1CCC1 [Compound 10] | 127% | 2740 nM |  |
| O=C(c1cc(C(F)(F)F)n[nH]1)N(CCN1CCCC1)Cc1cccc2[nH]ccc12 [Compound 164] | 100% | 113 nM |  |
| O=C(c1cc(C(F)(F)F)n[nH]1)N(CCN1CCOCC1)Cc1ccccc1Cl [Compound 174] | 100% | 1490 nM |  |

| SMILES | Max. Resp. (%) | AC50 [1] | AC50 |
| --- | --- | --- | --- |
| O=C(c1cc(C(F)(F)F)n[nH]1)N(CCOC1CCCC1)Cc1ccccc1F [Compound 39] | 30% | 47000 nM |  |
| O=C(c1cc(C(F)(F)F)n[nH]1)N(Cc1cccc2[nH]ccc12)NC1CCC1 [Compound 135] | 100% | 68 nM |  |
| CCN(CC)CCN(Cc1cccc(F)c1Cl)C(=O)c1cc(C(F)(F)F)n[nH]1 [Compound 182] | 100% |  | 109 nM |
| CC1CCCCN1CCN(Cc1ccccc1F)C(=O)c1cc(C(F)(F)F)n[nH]1 (stereo not drawn) [Compound 203] | 100% | 550 nM |  |
| CO[C@H]1CC[C@H](N(Cc2ccccc2Cl)C(=O)c2cc(C(F)(F)F)n[nH]2)CC1 [Compound 52] | 100% | 879 nM |  |
| O=C(CCSC(=S)NCc1cccnc1)c1c[nH]c2ccccc12 [PMA31] |  | > 20000 nM |  |
| O=C(c1cc(C(F)(F)F)n[nH]1)N(Cc1ccccc1F)C1CCCCC1 [Compound 153] | 57% | 19000 nM |  |
| O=C(c1cc(C(F)(F)F)n[nH]1)N(CCC1CCOCC1)Cc1ccccc1F [Compound 41] | 118% | 1260 nM |  |
| O=C(CCSC(=S)NCc1cccnc1)c1ccco1 [PMA25] | 107% | 4300 nM |  |
| CN(C)CCCN(Cc1ccccc1Cl)C(=O)c1cc(C(F)(F)F)n[nH]1 [Compound 186] | 100% | 375 nM |  |
| Nc1cccc(Cl)c1CN(CCN1CCCC(O)C1)C(=O)c1cc(C(F)(F)F)n[nH]1 (stereo not drawn) [Compound 225] | 100% | 102 nM |  |
| CCCC(C)N(Cc1ccccc1)C(=O)c1cc(C(F)(F)F)n[nH]1 (stereo not drawn) [Compound 16] | 22% | 74800 nM |  |
| O=C(c1cc(C(F)(F)F)n[nH]1)N(CCC1CCS(=O)(=O)C1)Cc1cc(F)cc(F)c1 (stereo not drawn) [Compound 69] | 74% | 1830 nM |  |
| O=C(c1cc(C(F)(F)F)n[nH]1)N(CCN1CCCCCC1)Cc1c(F)cccc1F [Compound 198] | 100% | 130 nM |  |
| COc1cc(C(=O)CCSC(=S)NCc2cccnc2)cc(OC)c1OC [PMA22] | 131% | 10100 nM |  |
| O=C(c1cc(C(F)(F)F)n[nH]1)N(Cc1cccc2[nH]ccc12)CC1CCC1 [Compound 6] | 100% |  |  |
| CCOCCCN(Cc1ccccc1Cl)C(=O)c1cc(C(F)(F)F)n[nH]1 [Compound 38] | 47% | 33000 nM |  |
| O=C(c1cc(Br)n[nH]1)N(Cc1ccc(O)cc1F)CC1CNC1 [Compound 11] | 61% |  | 10400 nM |
| O=C(c1cc(C(F)(F)F)n[nH]1)N(CCC1CCS(=O)(=O)C1)Cc1ncccc1Cl (stereo not drawn) [Compound 92] | 74% | 1290 nM |  |
| O=C(c1cc(C(F)(F)F)n[nH]1)N(Cc1cn[nH]c1)Cc1cccc2[nH]cnc12 [Compound 144] |  | 25000 nM |  |
| O=C(c1cc(C(F)(F)F)n[nH]1)N(Cc1ccccc1Cl)C1CCOCC1 [Compound 35] | 59% |  | 5080 nM |
| O=C(c1cc(C(F)(F)F)n[nH]1)N(Cc1cccc2[nH]cnc12)CC1CCC1 [Compound 123] | 100% |  | 828 nM |
| O=C(c1cc(C(F)(F)F)n[nH]1)N(CCC1CCS(=O)(=O)C1)Cc1cc(F)ccc1F (stereo not drawn) [Compound 70] | 91% | 884 nM |  |
| O=C(c1cc(C(F)(F)F)n[nH]1)N(CCC1CCCO1)Cc1ccccc1F (stereo not drawn) [Compound 46] | 70% | 13400 nM |  |
| O=C(c1cc(C(F)(F)F)n[nH]1)N(CCc1ccc(O)cc1)Cc1ccccc1Cl [Compound 230] | 100% | 12000 nM |  |
